This is an account of results in patent US8809306B2, “Combination andolast/glucocorticoids” (Rottapharm S.p.A., priority 2006, dated 2014).

The test system of assay [1] is eosinophils in the bronchoalveolar lavage (BAL) fluids. Kind of assay: Sephadex-induced eosinophilia: eosinophil counts in the BAL fluid.
Assay [2] has as its system airway hyperresponsiveness induced by Sephadex G100 particles. Kind of assay: Sephadex G100-induced lung hyperresponsiveness in rats (bronchoconstriction by Ach). As to conditions: G-100 rats.
Assay [3] concerns human B lymphocytes from allergic donors. To be noted: cited from earlier work.
For assay [4], the system named is T lymphocytes (Th2) production of IL-5. To be noted: preliminary in-vivo data, atopic asthmatic patients; cited from earlier work.
Assay [5] deals with airway hyperresponsiveness. To be noted: inhalation, 2 to 20 mg, mild-moderate asthmatic patients; AMP, exercise, UNDW, CAH; cited from earlier work.
Assay [6] concerns airway response following specific antigen challenge. To be noted: asthmatic patients; cited from earlier work.

`C[C@]12C=CC(=O)C=C1CC[C@@H]1[C@@H]2[C@@H](O)C[C@@]2(C)[C@H]1CC[C@]2(O)C(=O)CO` [Prednisolone]: in assay [1] (Prednisolone 1 mg/kg, Sephadex control 2.6×10^6, normal rats about 1×10^4), the “counts of eosinophils in the BAL fluid” value was 2×10^6. Moreover, the “eosinophilia in the BAL fluids, in words” value in assay [1] (Prednisolone 10 mg/kg) is reported as “totally suppressed”. Further, the “Protective Effect (%)” value in assay [2] (Prednisolone 1 mg/kg orally) amounted to 11.1%; in assay [2] (Prednisolone 10 mg/kg orally), 88.8%.

On to `O=C(Nc1ccc(-c2nnn[nH]2)cc1)c1ccc(-c2nnn[nH]2)cc1` [Andolast, N-4-(5-tetrazolyl)-phenyl-4-(5-tetrazolyl)-benzamide], for which the “effect on IL-4 dependent IgE synthesis” value in assay [3] is on record as “potent inhibitory effect”. Moreover, the “effect on Th2 production of IL-5” value in assay [4] was “inhibitory effect”. Also, in assay [5], the “airway hyperresponsiveness to specific and non-specific bronchostimulation challenges” value is “prevents in a dose-dependent fashion”. For the same molecule, in assay [6], the “early and late airway response following specific antigen challenge” value is recorded as “completely prevents”. Moreover, in assay [1] (Andolast 3 mg/kg, Sephadex control 2.6×10^6), the “counts of eosinophils in the BAL fluid” value is given as 1.75×10^6. Besides, the “Protective Effect (%)” value in assay [2] (Andolast 3 mg/kg i.m., calculated from Ach ED50) is 33.3%. In addition, the “Ach ED50” value in assay [2] (Andolast 3 mg/kg i.m., dose of Ach i.v. producing 50% response) is given as 0.20 mg/kg.
